Data on three compounds can be found in patent US10071090B2 (priority 2014, dated 2018).

The conditions of data set [1]: in vivo, po; cited from earlier work.
Data set [2] in a line: Solubility of oxymorphone in adhesive systems. In kind it is physicochemical. Conditions: in general. From the text: A variety of adhesive systems, enhancers and cosolvents were employed to observe permeation differences within these systems. In general, solubility in acrylic adhesives (i.e. Duro-Tak®) was higher, and thus the driving force out of the patch would be relatively lower. Solubility in silicone adhesives was lower and thus provided a much higher driving constant out of the formulation and into the skin; however, due to the relatively lower solubility, a solubility enhancer that also assisted in solubilising the skin was utilized.

`COc1ccc2c3c1O[C@H]1C(=O)CC[C@H]4[C@@H](C2)N(C)CC[C@]314` [Hydrocodone]: the Bioavailability in data set [1] is given as 80%.

Take `COc1ccc2c3c1O[C@H]1C(=O)CC[C@@]4(O)[C@@H](C2)N(C)CC[C@]314` [Oxycodone]: in data set [1], the Bioavailability is 87%.

Consider `CN1CC[C@]23c4c5ccc(O)c4O[C@H]2C(=O)CC[C@@]3(O)[C@H]1C5` [Oxymorphone], for which the “Solubility in silicone adhesives” value in data set [2] (compared with acrylic adhesives) is “lower”. Also, in data set [2] (compared with silicone adhesives), the “solubility in acrylic adhesives (i.e. Duro-Tak®)” value is on record as “higher”. Also, in data set [1], the Bioavailability is listed as 10%.
